Source: US20050106195A1, “N-octanoyl amino acid composition for slimming the human body” (priority 2003, published 2005)

Test system: human adipocytes
Test: In vitro lipolytic activity: free fatty acid release from isolated human adipocytes in suspension
Type: cell-based
Details: 2 h at 37° C.; for Free fatty acid concentration: mean of five assays, control 11.54 ± 2.71
Protocol: This is because triglycerides are stored in the adipocytes and constitute the fat reserve. For this reserve to diminish, which is the desired aim when slimming products are used, the triglycerides must be hydrolysed so that the fatty acids can be removed from the cell. Hydrolysis of the triglycerides to nonesterified fatty acids and glycerol is called lipolysis.
The method described consists in incubating the products in the presence of human adipocytes in suspension, followed by the measurement of the nonesterified fatty acid level in the adipocyte incubation medium. The free fatty acid level thus reflects the hydrolysis of the triglycerides present in the adipocytes.
The test is carried out using human adipocytes isolated and prepared as a cellular suspension. The adipocytes are isolated from the subcutaneous abdominal adipose tissue recovered during plastic surgery operations (abdominal plastic surgery operations) performed on women. The cells are isolated from fresh tissue. The adipose tissue is isolated and dissociated by the action of a collagenase (SIGMA™, 1 mg/ml, 30 minutes at 37° C., gentle stirring). Collagenase digests the connective tissue present in the adipose tissue. After digestion, the cells are filtered and washed in an appropriate culture medium containing MEM medium free of phenol red, free of glutamine (SIGMA)+2.2 mg/ml of sodium bicarbonate (GIBCO)+50 IU of penicillin (BIOWHITTAKER™)+50 μg/ml of streptomycin (BIOWHITTAKER™)+1% (v/v) of L-glutamine (BIOWHITTAKER™)+0.5% of lipid-free serum albumin (SIGMA™). The adipocyte suspension is used immediately after its preparation.
The test products are diluted in the adipocyte culture medium. They are incubated with the cells in suspension for two hours at 37° C. (250 μl of product+250 μl of adipocyte suspension).
After the incubation, the cell lysis is checked visually by the presence of a lipid layer at the surface of the cellular suspension. The supernatant media are collected. The free fatty acids are assayed by spectrophotometry using a commercial kit (NEFA™ C kit, WAKO), with reference to a fatty acid calibration series. The lypolytic activity of the products is evaluated relative to a control group incubated in the presence of adipocytes and in the absence of product. The reactivity of the adipocytes is systematically checked for the measurement of the lipolytic activity of the reference products, caffeine (1,3,7-trimethyl-xanthine) and theophylline (1,3-dimethyl-2,6-dihydroxy-purine). Five assays are performed for each of the test products. The lipolytic activity of LIPACIDE™ C8G, which contains active material 100% N-octanoylglycine, was thus evaluated.

[1] = incubation concentration 0.0019 wt %/volume
[2] = incubation concentration 0.0001 wt %/volume
[3] = incubation concentration 0.0005 wt %/volume
[4] = incubation concentration 0.0010 wt %/volume

| Compound | Lipolytic activity (compared with the control = 100) [1] | Free fatty acid concentration [1] [µM] | Lipolytic activity (compared with the control = 100) [2] | Free fatty acid concentration [2] [µM] | Lipolytic activity (compared with the control = 100) [3] | Free fatty acid concentration [3] [µM] | Lipolytic activity (compared with the control = 100) [4] | Free fatty acid concentration [4] [µM] |
| --- | --- | --- | --- | --- | --- | --- | --- | --- |
| Cn1c(=O)c2c(ncn2C)n(C)c1=O [Caffeine, 1,3,7-trimethyl-xanthine, reference compound] | 131 | 15.10 ± 4.11 | – | – | – | – | – | – |
| CCCCCCCC(=O)NCC(=O)O [LIPACIDE ™ C8G, N-octanoylglycine] | – | – | 206 | 23.83 ± 5.11 | 219 | 25.30 ± 2.70 | 223 | 25.75 ± 0.86 |
